ChEMBL document CHEMBL3885861, “Open TG-GATES”

Species on record: Rattus norvegicus
Test: Open TG-GATES - Regimen: Daily Repeat
Assay type: toxicity, organism-based, Sprague-Dawley
Set-up: regimen Daily Repeat, gender Male, age 6 weeks
Settings: in vivo, po, 10 mg/kg, […], route gavage, dose level Low; for KIDNEY_L / KIDNEY_R / KIDNEY_TOTAL: tissue Kidney; for LIVER: tissue Liver; for ALP / ALT / AST / BUN / CRE / Ca / Cl / DBIL / GLC / IP / K / LDH / Na / PL / RALB / TBIL / TC / TG / TP / gamma-GTP: tissue Plasma

Q: For `CS(=O)(=O)Nc1ccc([N+](=O)[O-])cc1Oc1ccccc1` [NIMESULIDE], which Lym (tissue Blood, time 28 day) is on record?
A: The Lym was 80.8%.

Q: What about the MCHC (tissue Blood, time 28 day) of the same compound?
A: The MCHC was 33.9%.

Q: What about the MCV (tissue Blood, time 28 day) of the same compound?
A: Its MCV is 57.7 fL.

Q: What about the Mono (tissue Blood, time 28 day) of the same compound?
A: The Mono was 6.4%.

Q: What about the Neu (tissue Blood, time 28 day) of the same compound?
A: The Neu was 11.6%.

Q: And the PT (tissue Blood, time 28 day)?
A: The PT was 11.9 s.

Q: And the Plat (tissue Blood, time 28 day)?
A: Its Plat is 117.6 x10_4/uL.

Q: What about the RBC (tissue Blood, time 28 day) of the same compound?
A: The RBC was 782.6 x10_4/ul.

Q: What about the Ret (tissue Blood, time 28 day) of the same compound?
A: Its Ret is 2.8%.

Q: What about the WBC (tissue Blood, time 28 day) of the same compound?
A: Its WBC is 102.3 x10_2/uL.

Q: What about the KIDNEY_L (time 7 day) of the same compound?
A: The KIDNEY_L was 1.1 g.

Q: And the KIDNEY_R (time 7 day)?
A: The KIDNEY_R was 1.1 g.

Q: And the KIDNEY_TOTAL (time 7 day)?
A: The KIDNEY_TOTAL was 2.2 g.

Q: What about the KIDNEY_L (time 14 day) of the same compound?
A: Its KIDNEY_L is 1.2 g.

Q: What about the KIDNEY_R (time 14 day) of the same compound?
A: The KIDNEY_R was 1.2 g.

Q: What about the KIDNEY_TOTAL (time 14 day) of the same compound?
A: The KIDNEY_TOTAL was 2.4 g.

Q: And the KIDNEY_L (time 28 day)?
A: The KIDNEY_L was 1.4 g.

Q: And the KIDNEY_R (time 28 day)?
A: Its KIDNEY_R is 1.4 g.

Q: What about the KIDNEY_TOTAL (time 28 day) of the same compound?
A: Its KIDNEY_TOTAL is 2.8 g.

Q: And the LIVER (time 7 day)?
A: The LIVER was 11.6 g.

Q: What about the LIVER (time 14 day) of the same compound?
A: Its LIVER is 14.2 g.

Q: What about the LIVER (time 28 day) of the same compound?
A: Its LIVER is 16.7 g.

Q: And the ALP (time 7 day)?
A: The ALP was 890.6 IU/L.

Q: And the ALT (time 7 day)?
A: The ALT was 36.6 IU/L.

Q: And the AST (time 7 day)?
A: The AST was 64.4 IU/L.

Q: What about the BUN (time 7 day) of the same compound?
A: Its BUN is 20 mg/dL.

Q: And the CRE (time 7 day)?
A: Its CRE is 0.5 mg/dL.

Q: And the Ca (time 7 day)?
A: Its Ca is 10.5 mg/dL.

Q: What about the Cl (time 7 day) of the same compound?
A: The Cl was 105.4 meq/L.

Q: And the DBIL (time 7 day)?
A: The DBIL was 0.016 mg/dL.

Q: And the GLC (time 7 day)?
A: The GLC was 200.8 mg/dL.

Q: What about the IP (time 7 day) of the same compound?
A: Its IP is 7.6 mg/dL.

Q: And the K (time 7 day)?
A: Its K is 4.6 meq/L.

Q: What about the LDH (time 7 day) of the same compound?
A: The LDH was 97 IU/L.

Q: What about the Na (time 7 day) of the same compound?
A: The Na was 140.4 meq/L.

Q: And the PL (time 7 day)?
A: The PL was 159.6 mg/dL.

Q: What about the RALB (time 7 day) of the same compound?
A: The RALB was 4.1 g/dL.

Q: What about the TBIL (time 7 day) of the same compound?
A: Its TBIL is 0.3 mg/dL.

Q: And the TC (time 7 day)?
A: The TC was 81.4 mg/dL.

Q: What about the TG (time 7 day) of the same compound?
A: Its TG is 97.8 mg/dL.

Q: And the TP (time 7 day)?
A: The TP was 5.9 g/dL.

Q: What about the gamma-GTP (time 7 day) of the same compound?
A: The gamma-GTP was 1.4 IU/L.

Q: What about the ALP (time 14 day) of the same compound?
A: Its ALP is 649.2 IU/L.

Q: And the ALT (time 14 day)?
A: Its ALT is 30.6 IU/L.

Q: What about the AST (time 14 day) of the same compound?
A: Its AST is 63.6 IU/L.

Q: What about the BUN (time 14 day) of the same compound?
A: Its BUN is 21 mg/dL.

Q: What about the CRE (time 14 day) of the same compound?
A: The CRE was 0.6 mg/dL.

Q: What about the Ca (time 14 day) of the same compound?
A: Its Ca is 10.6 mg/dL.

Q: What about the Cl (time 14 day) of the same compound?
A: The Cl was 106.4 meq/L.

Q: What about the DBIL (time 14 day) of the same compound?
A: The DBIL was 0 mg/dL.

Q: What about the GLC (time 14 day) of the same compound?
A: The GLC was 201.8 mg/dL.

Q: What about the IP (time 14 day) of the same compound?
A: The IP was 7.1 mg/dL.

Q: And the K (time 14 day)?
A: Its K is 4.6 meq/L.

Q: And the LDH (time 14 day)?
A: Its LDH is 88.6 IU/L.

Q: And the Na (time 14 day)?
A: The Na was 141 meq/L.

Q: And the PL (time 14 day)?
A: The PL was 161 mg/dL.

Q: And the RALB (time 14 day)?
A: Its RALB is 3.9 g/dL.

Q: And the TBIL (time 14 day)?
A: Its TBIL is 0.3 mg/dL.

Q: What about the TC (time 14 day) of the same compound?
A: Its TC is 78 mg/dL.

Q: And the TG (time 14 day)?
A: The TG was 147.6 mg/dL.

Q: And the TP (time 14 day)?
A: The TP was 5.9 g/dL.

Q: What about the gamma-GTP (time 14 day) of the same compound?
A: Its gamma-GTP is 1.8 IU/L.

Q: And the ALP (time 28 day)?
A: The ALP was 745.8 IU/L.

Q: What about the ALT (time 28 day) of the same compound?
A: Its ALT is 34.6 IU/L.

Q: And the AST (time 28 day)?
A: Its AST is 65.2 IU/L.

Q: What about the BUN (time 28 day) of the same compound?
A: The BUN was 20 mg/dL.

Q: And the CRE (time 28 day)?
A: The CRE was 0.6 mg/dL.

Q: What about the Ca (time 28 day) of the same compound?
A: The Ca was 10.6 mg/dL.

Q: And the Cl (time 28 day)?
A: Its Cl is 108.4 meq/L.

Q: What about the DBIL (time 28 day) of the same compound?
A: Its DBIL is 0.004 mg/dL.

Q: And the GLC (time 28 day)?
A: The GLC was 197 mg/dL.

Q: What about the IP (time 28 day) of the same compound?
A: Its IP is 6.8 mg/dL.

Q: And the K (time 28 day)?
A: Its K is 4.6 meq/L.

Q: What about the LDH (time 28 day) of the same compound?
A: Its LDH is 95.2 IU/L.

Q: What about the Na (time 28 day) of the same compound?
A: The Na was 144.2 meq/L.

Q: What about the PL (time 28 day) of the same compound?
A: Its PL is 147.2 mg/dL.

Q: What about the RALB (time 28 day) of the same compound?
A: The RALB was 4.1 g/dL.

Q: And the TBIL (time 28 day)?
A: Its TBIL is 0.3 mg/dL.

Q: And the TC (time 28 day)?
A: The TC was 65.8 mg/dL.

Q: And the TG (time 28 day)?
A: The TG was 167 mg/dL.

Q: What about the TP (time 28 day) of the same compound?
A: Its TP is 6.2 g/dL.

Q: And the gamma-GTP (time 28 day)?
A: The gamma-GTP was 1.8 IU/L.
